Results from patent publication US12509425B2, “Tablet comprising modoflaner as an active component” (VIRBAC, priority 2020, dated 2025).

Experiment: Bioavailability study: Modoflaner plasma concentration in dogs after oral gel capsule
Format: in vivo
Conditions: oral gelatin capsule, same dosage per kg body weight, 5 dogs per group
Procedure: The highest plasma concentration measured was set to 1 and the other plasma concentrations are given relatively to this highest value.
Ten dogs, divided into two groups comprising five animals each, were orally treated with a gel capsule containing either modification I or IV of Modoflaner at the same dosage of Modoflaner per kg body weight.
For kinetic evaluation, blood was sampled at predetermined time points (0, 0.5, 1, 2, 4, 6, 8, 24, 32, 48, 72 and 144 hours) before and after treatment (n=12 per dog). All samples were deep-frozen immediately after plasma preparation and stored at −18° C. or below until shipment to the analytical laboratory.
The samples were analyzed with regard to their concentration in Modoflaner.
The plasma samples were deproteinized by mixing 100 μL plasma with 900 μL of a mixture of 100 mL of 0.40 g ammonium acetate in 1 L water plus 100 μL formic acid and 600 mL acetonitrile, treatment for 30 s on a vortex mixer and subsequent centrifugation. The quantitative determination was performed by HPLC (Column ZORBAX Eclipse Plus C18 Rapid Resolution HD, 2.1×50 mm, 1.8 μm Agilent Technologies; Isocratic pump: Mobile phase: Solution of methanol/water (7+3, v/v)+10 mMol ammonium formate+0.12 mL/L formic acid Flow rate: 0.5 mL/min; Binary pump: Mobile phase A: water+10 mMol ammonium formate+0.12 mL/L formic acid Mobile phase B: methanol+10 mMol ammonium formate+0.12 mL/L formic acid Flow rate: 0.6 mL/min) with detection by tandem mass spectrometry using a Sciex API 5500 mass spectrometer (negative ionisation mode using the transition from Modoflaner precursor ion at m/z 714 to its product ion at m/z 694). The lower limit of quantitation was 1 μg/L.
For calculation of the mean values, results below the limit of quantitation were set to half the limit of quantitation.

| Cmax relative to Cmax of crystalline modification I | Tmax (listed as modification IV) | Tmax | SMILES |
| --- | --- | --- | --- |
| about 3 times | 4 h | – | O=C(Nc1cccc(C(=O)Nc2c(I)cc(C(F)(C(F)(F)F)C(F)(F)F)cc2C(F)(F)F)c1F)c1ccc(F)nc1 [6-fluoro-N-(3-(2-iodo-4-(perfluoropropan-2-yl)-6-(trifluoromethyl)phenylcarbamoyl)-2-fluoro-phenyl)-nicotinamide] |
| – | – | 32 h | O=C(Nc1cccc(C(=O)Nc2c(I)cc(C(F)(C(F)(F)F)C(F)(F)F)cc2C(F)(F)F)c1F)c1ccc(F)nc1 [crystalline modification I of Modoflaner, 6-fluoro-N-(3-(2-iodo-4-(perfluoropropan-2-yl)-6-(trifluoromethyl)phenylcarbamoyl)-2-fluoro-phenyl)-nicotinamide] |
